This is an account of results in patent publication US9840513B2 (AbbVie S.à.r.l., priority 2015, dated 2017).

The assay has as its target T1, F508delCFTR cell surface expression in CFBE41o-F508delCFTR-HRP cells (Homo sapiens, UniProt P13569, DEL508-508).
T1 construct: fused on or other part: Horseradish peroxidase (HRP) reporter inserted in the fourth exofacial (extracellular) loop of CFTR; expression is doxycycline-inducible
In words: Cell Surface Expression-Horse Radish Peroxidase (CSE-HRP) Assay. In kind it is cell-based. The conditions noted are these: for EC50: CFBE41o-F508delCFTR-HRP cells, 18-24 hours at 33° C., 8-point curve, highest concentration 20 μM; for Maximum % activity (%): maximum at any tested concentration, normalized to on-plate positive control (3 μM). From the text: Cell Surface Expression-Horse Radish Peroxidase (CSE-HRP) Assay:
A cellular assay for measuring the F508delCFTR cell surface expression after correction with test compounds was developed in human lung derived epithelial cell line (CFBE41o-) (Veit G et al, (2012) Mol Biol Cell. 23(21): 4188-4202). This was achieved by expressing the F508delCFTR mutation along with a horseradish peroxidase (HRP) in the fourth exofacial loop and then measuring the HRP activity using luminescence readout from these cells, CFBE41o-F508delCFTR-HRP, that were incubated overnight with the test corrector compounds. Briefly, for this primary assay, the CFBE41o-F508delCFTR-HRP cells were plated in 384-well plates (Greiner Bio-one; Cat 781080) at 4,000 cells/well along with 0.5 μg/mL doxycycline to induce the F508delCFTR-HRP expression and further incubated at 37° C., 5% CO2 for 72 hours. The test compounds were then added at the required concentrations and further incubated for 18-24 hours at 33° C. The highest concentration tested was 20 μM with an 8-point concentration response curve using a 3-fold dilution. Three replicate plates were run to determine one EC50. All plates contained negative controls (dimethyl sulfoxide, DMSO) and positive controls (3 μM of 3-[(2R,4R)-4-({[1-(2,2-difluoro-1,3-benzodioxol-5-yl)cyclopropyl]carbonyl}amino)-7-methoxy-3,4-dihydro-2H-chromen-2-yl]benzoic acid) as well as on-plate concentration response of the positive control. Post incubation, the plates were washed 5× times with Dulbecco's phosphate buffered saline (DPBS), followed by the addition of the HRP substrate, luminol (50 μL), and measuring the HRP activity using luminescence readout on EnVision® Multilabel Plate Reader (Perkin Elmer; product number 2104-0010). The raw counts from the experiment are analyzed using Accelrys® Assay Explorer v3.3.
Z′ greater than 0.5 was used as passing quality control criteria for the plates.
The Z′ is defined as: 1−[3*SDPositive Control+3*SDNegative Control/Absolute(MeanPositive Control−MeanNegative Control)] wherein “SD” is standard deviation.
The % activity measured at each of the 8 test concentrations of the test compound was normalized to the on-plate positive control using the following formula: % activity=[(test compound response DMSO response)/(positive control response DMSO response)]*100
The maximum % activity achieved for the test compound at any tested concentration is presented in Table 1 along with the EC50 calculated using the following general sigmoidal curve with variable Hill slope equation (described as Model 42 in the Accelrys® Assay Explorer v3.3 software): y=(a−d)/(1+(x/c)^b)+d
General sigmoidal curve with concentration, response, top, bottom, EC50 and Hill slope.
This model describes a sigmoidal curve with an adjustable baseline, a. The equation can be used to fit curves where response is either increasing or decreasing with respect to the independent variable, “x”.
“x” is a concentration of drug under test.
“a” is the maximum response, and “d” is the minimum response
“c” is the inflection point (EC50) for the curve. That is, “y” is halfway between the lower and upper asymptotes when x=c.
“b” is the slope-factor or Hill coefficient. The sign of b is positive when the response increases with increasing dose and is negative when the response decreases with increasing dose (inhibition).

T1 sequence (P13569 with tags, fused parts or gaps DEL508-508 limits assumed): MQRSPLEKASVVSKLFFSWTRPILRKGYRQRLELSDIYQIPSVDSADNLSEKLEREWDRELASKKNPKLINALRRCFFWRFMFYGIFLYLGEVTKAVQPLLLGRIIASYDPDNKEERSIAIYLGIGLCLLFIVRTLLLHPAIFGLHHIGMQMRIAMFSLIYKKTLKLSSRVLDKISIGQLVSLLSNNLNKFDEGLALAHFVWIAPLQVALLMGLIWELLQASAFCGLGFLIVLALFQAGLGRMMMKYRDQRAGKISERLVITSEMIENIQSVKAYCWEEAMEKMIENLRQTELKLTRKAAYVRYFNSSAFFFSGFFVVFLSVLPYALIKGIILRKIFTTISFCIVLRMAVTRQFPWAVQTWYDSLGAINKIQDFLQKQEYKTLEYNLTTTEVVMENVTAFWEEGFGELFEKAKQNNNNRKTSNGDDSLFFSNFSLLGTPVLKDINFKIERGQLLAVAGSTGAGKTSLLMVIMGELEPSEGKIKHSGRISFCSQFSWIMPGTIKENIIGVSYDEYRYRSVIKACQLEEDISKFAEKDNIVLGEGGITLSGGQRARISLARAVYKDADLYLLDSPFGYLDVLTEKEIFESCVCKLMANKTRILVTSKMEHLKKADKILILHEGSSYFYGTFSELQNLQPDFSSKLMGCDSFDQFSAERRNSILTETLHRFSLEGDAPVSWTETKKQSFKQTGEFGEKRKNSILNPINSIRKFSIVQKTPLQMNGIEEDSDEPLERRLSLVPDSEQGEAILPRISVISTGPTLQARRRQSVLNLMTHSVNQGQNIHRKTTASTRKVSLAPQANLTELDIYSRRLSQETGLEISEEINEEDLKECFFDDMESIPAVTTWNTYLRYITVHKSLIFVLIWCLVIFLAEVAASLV
T1 sequence (P13569 919-1480 limits assumed, stated change not applied): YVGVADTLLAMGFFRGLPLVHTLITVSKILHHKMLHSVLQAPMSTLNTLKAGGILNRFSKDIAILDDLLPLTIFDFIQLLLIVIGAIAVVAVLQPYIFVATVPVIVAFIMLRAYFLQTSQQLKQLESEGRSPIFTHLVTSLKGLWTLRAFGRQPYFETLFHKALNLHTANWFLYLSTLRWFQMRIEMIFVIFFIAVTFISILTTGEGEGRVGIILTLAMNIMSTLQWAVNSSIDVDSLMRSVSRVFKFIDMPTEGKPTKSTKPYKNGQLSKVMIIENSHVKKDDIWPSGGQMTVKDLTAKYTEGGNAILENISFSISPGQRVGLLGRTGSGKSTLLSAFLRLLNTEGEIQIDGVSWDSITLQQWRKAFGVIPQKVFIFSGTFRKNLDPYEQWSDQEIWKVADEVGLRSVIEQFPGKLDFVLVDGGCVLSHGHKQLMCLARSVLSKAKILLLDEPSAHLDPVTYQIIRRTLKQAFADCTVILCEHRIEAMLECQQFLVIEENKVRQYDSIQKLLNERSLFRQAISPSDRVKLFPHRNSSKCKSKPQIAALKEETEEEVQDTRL

By EC50 is commonly meant the concentration that produces a half-maximal response. Read a low EC50 as higher potency in that assay. Regarding `Cc1ccc(NC(=O)[C@@]2(C)COc3cc4c(cc32)OC(F)(F)O4)nc1-c1cccc(C(=O)OC(C)(C)C)c1` [Example 5, tert-butyl 3-(6-{[(7R)-2,2-difluoro-7-methyl-6,7-dihydro-2H-furo[2,3-f][1,3]benzodioxole-7-carbonyl]amino}-3-methylpyridin-2-yl)benzoate], the EC50 was determined as 3210 nM and the “Maximum % activity (%)” value is 137%.
Take `CC(C)CN1CC2CN(c3cccc(NC(=O)C4(C)COc5cc6c(cc54)OC(F)(F)O6)n3)CC2C1` (centres unmarked) [Example 108, 2,2-difluoro-7-methyl-N-{6-[5-(2-methylpropyl)hexahydropyrrolo[3,4-c]pyrrol-2(1H)-yl]pyridin-2-yl}-6,7-dihydro-2H-furo[2,3-f][1,3]benzodioxole-7-carboxamide]: a half-maximal response (EC50) required 1990 nM and the “Maximum % activity (%)” value worked out at 89%.
The like results for `C[C@]1(C(=O)N[C@H]2C[C@@H](C3CCN(C(=O)OCc4ccccc4)CC3)Oc3cc(OC(F)(F)F)ccc32)COc2cc3c(cc21)OC(F)(F)O3` [Example 225, benzyl 4-[(2S,4S)-4-{[(7R)-2,2-difluoro-7-methyl-6,7-dihydro-2H-furo[2,3-f][1,3]benzodioxole-7-carbonyl]amino}-7-(trifluoromethoxy)-3,4-dihydro-2H-1-benzopyran-2-yl]piperidine-1-carboxylate] were, in that order, 4020 nM and 54%.
As to `C[C@]1(C(=O)N[C@@H]2C[C@H]([C@H]3CC[C@H](C(=O)N4CCOCC4CO)CC3)Oc3cc(OC(F)(F)F)ccc32)COc2cc3c(cc21)OC(F)(F)O3` (stereo partly drawn) [Example 257, (7R)-2,2-difluoro-N-[(2R,4R)-2-{trans-4-[3-(hydroxymethyl)morpholine-4-carbonyl]cyclohexyl}-7-(trifluoromethoxy)-3,4-dihydro-2H-1-benzopyran-4-yl]-7-methyl-6,7-dihydro-2H-furo[2,3-f][1,3]benzodioxole-7-carboxamide], the concentration for a half-maximal effect (EC50) was 70 nM and the “Maximum % activity (%)” value worked out at 170%.
The like results for `CC1(C)OC[C@@H](Cn2nc(-c3ccccc3)cc(NC(=O)[C@]3(C)COc4cc5c(cc43)OC(F)(F)O5)c2=O)O1` [Example 41, (7S)—N-(2-{[(4R)-2,2-dimethyl-1,3-dioxolan-4-yl]methyl}-3-oxo-6-phenyl-2,3-dihydropyridazin-4-yl)-2,2-difluoro-7-methyl-6,7-dihydro-2H-furo[2,3-f][1,3]benzodioxole-7-carboxamide] were, in that order, greater than 20000 nM and 3%.
Turning to `C[C@]1(C(=O)Nc2cccc(N3CCCC3)n2)COc2cc3c(cc21)OC(F)(F)O3` [Example 118, (7R)-2,2-difluoro-7-methyl-N-[6-(pyrrolidin-1-yl)pyridin-2-yl]-6,7-dihydro-2H-furo[2,3-f][1,3]benzodioxole-7-carboxamide], a half-maximal response (EC50) required 1220 nM and the “Maximum % activity (%)” value turned out to be 123%.
As for `CC(C)OC(=O)[C@H]1CC[C@H]([C@H]2C[C@@H](NC(=O)[C@@]3(C)COc4cc5c(cc43)OC(F)(F)O5)c3ccc(OC(F)(F)F)cc3O2)CC1` [Example 194, propan-2-yl trans-4-[(2R,4R)-4-{[(7R)-2,2-difluoro-7-methyl-6,7-dihydro-2H-furo[2,3-f][1,3]benzodioxole-7-carbonyl]amino}-7-(trifluoromethoxy)-3,4-dihydro-2H-1-benzopyran-2-yl]cyclohexane-1-carboxylate], the midpoint of the response, the EC50, lay at 60 nM and the “Maximum % activity (%)” value was 143%.
Turning to `COc1ccc2c(c1)O[C@@H](c1cccc(C(=O)O)c1)C[C@H]2NC(=O)[C@]1(C)COc2cc3c(cc21)OC(F)(F)O3` [Example 13, 3-[(2R,4R)-4-{[(7S)-2,2-difluoro-7-methyl-6,7-dihydro-2H-furo[2,3-f][1,3]benzodioxole-7-carbonyl]amino}-7-methoxy-3,4-dihydro-2H-1-benzopyran-2-yl]benzoic acid], the concentration giving a half-maximal response (EC50) turned out to be 8810 nM and the “Maximum % activity (%)” value is on record as 72%.
Turning to `COc1ccc2c(c1)O[C@@H](c1ccc(C(=O)NC(C)CC(N)=O)cn1)C[C@H]2NC(=O)[C@@]1(C)COc2cc3c(cc21)OC(F)(F)O3` (stereo partly drawn) [Example 229, N-(4-amino-4-oxobutan-2-yl)-6-[(2R,4R)-4-{[(7R)-2,2-difluoro-7-methyl-6,7-dihydro-2H-furo[2,3-f][1,3]benzodioxole-7-carbonyl]amino}-7-methoxy-3,4-dihydro-2H-1-benzopyran-2-yl]pyridine-3-carboxamide], the EC50 amounted to 110 nM and the “Maximum % activity (%)” value is 118%.
The corresponding values for `C[C@]1(C(=O)Nc2cccc(-c3cc(C(=O)O)cs3)n2)COc2cc3c(cc21)OC(F)(F)O3` [Example 86, 5-(6-{[(7R)-2,2-difluoro-7-methyl-6,7-dihydro-2H-furo[2,3-f][1,3]benzodioxole-7-carbonyl]amino}pyridin-2-yl)thiophene-3-carboxylic acid] are 2840 nM and 112%.
For `C[C@]1(C(=O)Nc2cccc(N3CC[C@@H](C(=O)O)C3)n2)COc2cc3c(cc21)OC(F)(F)O3` [Example 9, (3R)-1-(6-{[(7R)-2,2-difluoro-7-methyl-6,7-dihydro-2H-furo[2,3-f][1,3]benzodioxole-7-carbonyl]amino}pyridin-2-yl)pyrrolidine-3-carboxylic acid], the concentration for a half-maximal effect (EC50) is 1030 nM and the “Maximum % activity (%)” value came to 135%.
Regarding `COc1ccc2c(c1)O[C@@H](c1ccc(C(=O)NC(CO)c3ccccc3OC)cn1)C[C@H]2NC(=O)[C@@]1(C)COc2cc3c(cc21)OC(F)(F)O3` (stereo partly drawn) [Example 222, 6-[(2R,4R)-4-{[(7R)-2,2-difluoro-7-methyl-6,7-dihydro-2H-furo[2,3-f][1,3]benzodioxole-7-carbonyl]amino}-7-methoxy-3,4-dihydro-2H-1-benzopyran-2-yl]-N-[2-hydroxy-1-(2-methoxyphenyl)ethyl]pyridine-3-carboxamide], a half-maximal response (EC50) required 20 nM and the “Maximum % activity (%)” value is listed as 116%.
The corresponding values for `C[C@]1(C(=O)Nc2cccc(N3CCC(CO)(CCl)C3)n2)COc2cc3c(cc21)OC(F)(F)O3` (stereo partly drawn) [Example 110, (7R)—N-{6-[3-(chloromethyl)-3-(hydroxymethyl)pyrrolidin-1-yl]pyridin-2-yl}-2,2-difluoro-7-methyl-6,7-dihydro-2H-furo[2,3-f][1,3]benzodioxole-7-carboxamide] are 3020 nM and 120%.
As for `COC(=O)c1ccc([C@H]2C[C@@H](NC(=O)C3(C)COc4cc5c(cc43)OC(F)(F)O5)c3ccc(OC)cc3O2)cc1` (stereo partly drawn) [Example 15, methyl 4-{(2R,4R)-4-[(2,2-difluoro-7-methyl-6,7-dihydro-2H-furo[2,3-f][1,3]benzodioxole-7-carbonyl)amino]-7-methoxy-3,4-dihydro-2H-1-benzopyran-2-yl}benzoate], the EC50 is 150 nM and the “Maximum % activity (%)” value amounted to 143%.
Take `COC(=O)[C@H]1CN(c2cccc(NC(=O)[C@@]3(C)COc4cc5c(cc43)OC(F)(F)O5)n2)C[C@@H]1c1ccccc1` [Example 112, methyl (3R,4S)-1-(6-{[(7R)-2,2-difluoro-7-methyl-6,7-dihydro-2H-furo[2,3-f][1,3]benzodioxole-7-carbonyl]amino}pyridin-2-yl)-4-phenylpyrrolidine-3-carboxylate]: the EC50 is 990 nM and the “Maximum % activity (%)” value is given as 131%.
The corresponding values for `C[C@]1(C(=O)N[C@@H]2C[C@H](C3CCNCC3)Oc3cc(OC(F)(F)F)ccc32)COc2cc3c(cc21)OC(F)(F)O3` [Example 182, (7R)-2,2-difluoro-7-methyl-N-[(2R,4R)-2-(piperidin-4-yl)-7-(trifluoromethoxy)-3,4-dihydro-2H-1-benzopyran-4-yl]-6,7-dihydro-2H-furo[2,3-f][1,3]benzodioxole-7-carboxamide] are 1680 nM and 195%.
